Experimental data published in patent US20210261570A1, “ANTIBIOTIC RESISTANCE BREAKERS” (KING'S COLLEGE LONDON, priority 2017, published 2021).
Converted amounts (≈) assume the structure as drawn. Where two headings read alike, the source gives them in different places.

Tested on: Neisseria gonorrhoeae strains
Assay type: cell-based
Source text: Untreated controls and blank wells were included.

Q: Which MIC (strain FDA-CDC AR-BANK#0173, resistance CIP-R PEN-R TET-R) does the source give for `C[C@H]1COc2c(N3CC[C@@H](Nc4ncccn4)C3)c(F)cc3c(=O)c(C(=O)O)cn1c23` [KSN-82-L22] here?
A: 2 µg/mL (≈ 4.7 µM)

Q: And the MIC (strain FDA-CDC AR-BANK#0174, resistance CIP-R PEN-R TET-R)?
A: 2 µg/mL (≈ 4.7 µM)

Q: And the MIC (strain FDA-CDC AR-BANK#0175, resistance CIP-S PEN-I TET-I)?
A: ≤0.03125 µg/mL

Q: What about the MIC (strain FDA-CDC AR-BANK#0176, resistance CIP-R PEN-R TET-R) of the same compound?
A: 2 µg/mL (≈ 4.7 µM)

Q: What about the MIC (strain FDA-CDC AR-BANK#0177, resistance CIP-S PEN-I TET-R) of the same compound?
A: ≤0.03125 µg/mL

Q: What about the MIC (strain FDA-CDC AR-BANK#0178, resistance CIP-R PEN-R TET-R) of the same compound?
A: 2 µg/mL (≈ 4.7 µM)

Q: What about the MIC (strain FDA-CDC AR-BANK#0179, resistance CIP-S PEN-S TET-I) of the same compound?
A: ≤0.03125 µg/mL

Q: And the MIC (strain FDA-CDC AR-BANK#0180, resistance CIP-R PEN-I TET-R)?
A: 2 µg/mL (≈ 4.7 µM)

Q: And the MIC (strain FDA-CDC AR-BANK#0181, resistance CIP-S PEN-I TET-R)?
A: ≤0.03125 µg/mL

Q: What about the MIC (strain FDA-CDC AR-BANK#0182, resistance CIP-R PEN-I TET-R) of the same compound?
A: 2 µg/mL (≈ 4.7 µM)

Q: What about the MIC (strain FDA-CDC AR-BANK#0183, resistance CIP-R PEN-R TET-R) of the same compound?
A: 2 µg/mL (≈ 4.7 µM)

Q: And the MIC (strain FDA-CDC AR-BANK#0184, resistance CIP-R PEN-R TET-R)?
A: 2 µg/mL (≈ 4.7 µM)

Q: And the MIC (strain FDA-CDC AR-BANK#0185, resistance CIP-R PEN-I TET-R)?
A: 2 µg/mL (≈ 4.7 µM)

Q: What about the MIC (strain FDA-CDC AR-BANK#0186, resistance CIP-R PEN-R TET-R) of the same compound?
A: 1 µg/mL (≈ 2.35 µM)

Q: What about the MIC (strain FDA-CDC AR-BANK#0187, resistance CIP-R PEN-I TET-R) of the same compound?
A: 2 µg/mL (≈ 4.7 µM)

Q: And the MIC (strain FDA-CDC AR-BANK#0188, resistance CIP-R PEN-I TET-R)?
A: 1 µg/mL (≈ 2.35 µM)

Q: And the MIC (strain FDA-CDC AR-BANK#0189, resistance CIP-R PEN-R TET-R)?
A: 2 µg/mL (≈ 4.7 µM)

Q: And the MIC (strain FDA-CDC AR-BANK#0190, resistance CIP-R PEN-R TET-R)?
A: 2 µg/mL (≈ 4.7 µM)

Q: What about the MIC (strain FDA-CDC AR-BANK#0191, resistance CIP-R PEN-R TET-R) of the same compound?
A: 2 µg/mL (≈ 4.7 µM)

Q: And the MIC (strain FDA-CDC AR-BANK#0192, resistance CIP-R PEN-R TET-R)?
A: 2 µg/mL (≈ 4.7 µM)

Q: What about the MIC (strain FDA-CDC AR-BANK#0193, resistance CIP-S PEN-R TET-R) of the same compound?
A: ≤0.03125 µg/mL

Q: What about the MIC (strain FDA-CDC AR-BANK#0194, resistance CRO-NS CIP-S PEN-I TET-R) of the same compound?
A: ≤0.03125 µg/mL

Q: What about the MIC (strain FDA-CDC AR-BANK#0195, resistance CIP-R PEN-I TET-R) of the same compound?
A: 2 µg/mL (≈ 4.7 µM)

Q: What about the MIC (strain FDA-CDC AR-BANK#0196, resistance CIP-R PEN-R TET-R) of the same compound?
A: 2 µg/mL (≈ 4.7 µM)

Q: And the MIC (strain FDA-CDC AR-BANK#0197, resistance CIP-R PEN-I TET-I)?
A: 2 µg/mL (≈ 4.7 µM)

Q: What about the MIC (strain FDA-CDC AR-BANK#0198, resistance CIP-R PEN-R TET-R) of the same compound?
A: 2 µg/mL (≈ 4.7 µM)

Q: What about the MIC (strain FDA-CDC AR-BANK#0199, resistance CIP-S PEN-R TET-R) of the same compound?
A: ≤0.03125 µg/mL

Q: What about the MIC (strain FDA-CDC AR-BANK#0200, resistance CIP-R PEN-R TET-R) of the same compound?
A: 2 µg/mL (≈ 4.7 µM)

Q: What about the MIC (strain FDA-CDC AR-BANK#0201, resistance CIP-R PEN-R TET-R) of the same compound?
A: 2 µg/mL (≈ 4.7 µM)

Q: And the MIC (strain FDA-CDC AR-BANK#0202, resistance CIP-S PEN-S TET-I)?
A: ≤0.03125 µg/mL

Q: And the MIC (strain FDA-CDC AR-BANK#0203, resistance CIP-R PEN-R TET-R)?
A: 2 µg/mL (≈ 4.7 µM)

Q: And the MIC (strain FDA-CDC AR-BANK#0204, resistance CIP-R PEN-I TET-R)?
A: 2 µg/mL (≈ 4.7 µM)

Q: What about the MIC (strain FDA-CDC AR-BANK#0205, resistance CIP-R PEN-R TET-R) of the same compound?
A: 2 µg/mL (≈ 4.7 µM)

Q: What about the MIC (strain FDA-CDC AR-BANK#0206, resistance CIP-R PEN-R TET-R) of the same compound?
A: 2 µg/mL (≈ 4.7 µM)

Q: What about the MIC (strain FDA-CDC AR-BANK#0207, resistance CIP-R PEN-R TET-R) of the same compound?
A: 2 µg/mL (≈ 4.7 µM)

Q: And the MIC (strain FDA-CDC AR-BANK#0208, resistance CIP-R PEN-I TET-R)?
A: 2 µg/mL (≈ 4.7 µM)

Q: And the MIC (strain FDA-CDC AR-BANK#0209, resistance CIP-R PEN-I TET-R)?
A: 2 µg/mL (≈ 4.7 µM)

Q: What about the MIC (strain FDA-CDC AR-BANK#0210, resistance CIP-R PEN-I TET-I) of the same compound?
A: 2 µg/mL (≈ 4.7 µM)

Q: And the MIC (strain FDA-CDC AR-BANK#0211, resistance CIP-R PEN-R TET-R)?
A: 2 µg/mL (≈ 4.7 µM)

Q: What about the MIC (strain FDA-CDC AR-BANK#0212, resistance CIP-R PEN-I TET-R) of the same compound?
A: 2 µg/mL (≈ 4.7 µM)

Q: And the MIC (strain FDA-CDC AR-BANK#0213, resistance CIP-R PEN-I TET-I)?
A: 1 µg/mL (≈ 2.35 µM)

Q: And the MIC (strain FDA-CDC AR-BANK#0214, resistance CIP-R PEN-R TET-R)?
A: 2 µg/mL (≈ 4.7 µM)

Q: And the MIC (strain NCTC 13817, resistance PEN-R TET-I)?
A: 0.5 µg/mL (≈ 1.18 µM)

Q: What about the MIC (strain NCTC 13818, resistance CIP-R OFX-R PEN-R TET-R) of the same compound?
A: 2 µg/mL (≈ 4.7 µM)

Q: And the MIC (strain NCTC 13819, resistance FEP-NS CAZ-NS CIP-R OFX-R PEN-R TET-I)?
A: 2 µg/mL (≈ 4.7 µM)

Q: What about the MIC (strain NCTC 13820, resistance FEP-NS CFM-NS CAZ-NS CRO-NS CIP-R OFX-R PEN-R TET-R) of the same compound?
A: 2 µg/mL (≈ 4.7 µM)

Q: What about the MIC (strain NCTC 13821, resistance FEP-NS CFM-NS CAZ-NS CRO-NS CIP-R PEN-I TET-I) of the same compound?
A: 2 µg/mL (≈ 4.7 µM)

Q: What about the MIC (strain NCTC 13822, resistance FEP-NS CFM-NS CAZ-NS CIP-R OFX-R PEN-R TET-I) of the same compound?
A: 2 µg/mL (≈ 4.7 µM)

Q: What about the MIC (strain TCDC-NG08107, resistance PEN-R CFM-R CPD-R CIP-R) of the same compound?
A: 2 µg/mL (≈ 4.7 µM)
